Laboratory results from ChEMBL document CHEMBL5634084, “Design and optimization of selective and potent CDK9 inhibitors with flavonoid scaffold for the treatment of acute myeloid leukemia” (Eur J Med Chem, 2023).
Converted amounts (≈) assume the structure as drawn. The source made the active and inactive calls. No cut-off for these calls is given here.

Experiments:
MV4-11 [1] = experiment: Antiproliferative activity against human MV4-11 cells assessed as reduction in cell viability measured after 72 hrs; type: functional, cell-based; details: MV4-11, 72 h
[2] = biological target: CDK9/cyclin T1 (Homo sapiens) (UniProt O60563+P50750); experiment: Inhibition of CDK9/CyclinT1 (unknown origin) at 100 nM by ADP-Glo assay relative to control; type: protein-complex assay
[3] = biological target: CDK2/Cyclin A2 (Homo sapiens) (UniProt P24941+P20248); experiment: Inhibition of CDK2/CyclinA2 (unknown origin) at 100 nM by ADP-Glo assay relative to control; type: protein-complex assay
A549 = experiment: Antiproliferative activity against human A549 cells assessed as reduction in cell viability measured after 72 hrs; type: functional, cell-based; details: A549, 72 h
MV4-11 [4] = experiment: Antitumor activity against human MV4-11 cells xenografted in BALB/c mouse assessed as inhibition of tumor growth at 10 mg/kg, iv qd and measured every 2 days; type: functional; details: MV4-11, 48 h, read-out: TGI
[5] = Solubility of the compound in water at pH 7.4; type: physicochemical
HT-29 = experiment: Antiproliferative activity against human HT-29 cells assessed as reduction in cell viability measured after 72 hrs; type: functional, cell-based; details: HT-29, 72 h
[6] = Cytotoxicity against human HEK293 cells assessed as reduction in cell viability measured after 72 hrs; type: toxicity, cell-based
SW480 = experiment: Antiproliferative activity against human SW480 cells assessed as reduction in cell viability measured after 72 hrs; type: functional, cell-based; details: SW480, 72 h
[7] = biological target: Cyclin-dependent kinase 4/cyclin D1 (Homo sapiens, UniProt P11802); experiment: Inhibition of CDK4/CyclinD1 (unknown origin) by ADP-Glo assay; type: protein-complex assay
Sequence of Cyclin-dependent kinase 4/cyclin D1 (P11802 whole entry): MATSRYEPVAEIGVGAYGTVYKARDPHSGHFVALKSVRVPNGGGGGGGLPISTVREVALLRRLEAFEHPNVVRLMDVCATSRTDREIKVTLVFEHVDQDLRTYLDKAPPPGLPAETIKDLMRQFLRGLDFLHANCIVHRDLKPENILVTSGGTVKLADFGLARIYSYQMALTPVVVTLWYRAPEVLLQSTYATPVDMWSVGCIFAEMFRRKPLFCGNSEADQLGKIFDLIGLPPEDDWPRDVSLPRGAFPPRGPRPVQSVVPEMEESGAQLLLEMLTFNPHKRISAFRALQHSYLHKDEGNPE
Sequence of Cyclin-dependent kinase 4/cyclin D1 (P24385 whole entry, further chain): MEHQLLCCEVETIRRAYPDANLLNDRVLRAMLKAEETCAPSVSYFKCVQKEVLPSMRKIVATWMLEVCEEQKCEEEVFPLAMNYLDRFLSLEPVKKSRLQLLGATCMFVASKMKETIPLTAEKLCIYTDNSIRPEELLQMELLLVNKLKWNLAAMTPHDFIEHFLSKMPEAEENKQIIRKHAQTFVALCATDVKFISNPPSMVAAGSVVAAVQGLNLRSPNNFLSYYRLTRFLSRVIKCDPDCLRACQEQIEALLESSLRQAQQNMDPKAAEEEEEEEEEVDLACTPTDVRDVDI

BT-549 = experiment: Antiproliferative activity against human BT-549 cells assessed as reduction in cell viability measured after 72 hrs; type: functional, cell-based; details: BT-549, 72 h
[8] = Inhibition of CDK1/CyclinA2 (unknown origin) by ADP-Glo assay; parameters: species or system Homo sapiens
MCF7 = experiment: Antiproliferative activity against human MCF7 cells assessed as reduction in cell viability measured after 72 hrs; type: functional, cell-based; details: MCF7, 72 h
HL-60 = experiment: Antiproliferative activity against human HL-60 cells assessed as reduction in cell viability measured after 72 hrs; type: functional, cell-based; details: HL-60, 72 h
[9] = Toxicity in BALB/c mouse xenografted with human MV4-11 cells assessed as effect on body weight at 10 to 20 mg/kg, iv qd; type: organism-based; details: in vivo, dose 10-20 mg/kg
MOLM-13 = experiment: Antiproliferative activity against human MOLM-13 cells assessed as reduction in cell viability measured after 72 hrs; type: functional, cell-based; details: MOLM-13, 72 h
MV4-11 [10] = experiment: Antitumor activity against human MV4-11 cells xenografted in BALB/c mouse assessed as inhibition of tumor growth at 20 mg/kg, iv qd and measured every 2 days; type: functional; details: MV4-11, 48 h, read-out: TGI
[11] = Metabolic stability of the compound in mouse liver microsomes at 10 uM measured for 60 mins in presence of NADPH by LC-MS/MS analysis; type: ADME, Microsome; details: 1 h
[12] = Metabolic stability of the compound in rat plasma at 10 uM measured for 60 mins by LC-MS/MS analysis; type: ADME, cell-free; details: 1 h
HCT-116 = experiment: Antiproliferative activity against human HCT-116 cells assessed as reduction in cell viability measured after 72 hrs; type: functional, cell-based; details: HCT-116, 72 h
[13] = Cytotoxicity against human L02 cells assessed as reduction in cell viability measured after 72 hrs; type: toxicity, cell-based
THP-1 = experiment: Antiproliferative activity against human THP-1 cells assessed as reduction in cell viability measured after 72 hrs; type: functional, cell-based; details: THP-1, 72 h
HepG2 = experiment: Antiproliferative activity against human HepG2 cells assessed as reduction in cell viability measured after 72 hrs; type: functional, cell-based; details: HepG2, 72 h
[14] = Toxicity in BALB/c mouse xenografted with human MV4-11 cells assessed as animal's mortality at 10 to 20 mg/kg, iv qd; type: organism-based; details: in vivo, dose 10-20 mg/kg
CDK7/Cyclin H/MNAT1 = CDK7/Cyclin H/MNAT1 (Homo sapiens, UniProt P50613); experiment: Inhibition of CDK7/Cyclin H/MAT1 (unknown origin) by ADP-Glo assay; type: protein-complex assay
Sequence of CDK7/Cyclin H/MNAT1 (P51946 whole entry): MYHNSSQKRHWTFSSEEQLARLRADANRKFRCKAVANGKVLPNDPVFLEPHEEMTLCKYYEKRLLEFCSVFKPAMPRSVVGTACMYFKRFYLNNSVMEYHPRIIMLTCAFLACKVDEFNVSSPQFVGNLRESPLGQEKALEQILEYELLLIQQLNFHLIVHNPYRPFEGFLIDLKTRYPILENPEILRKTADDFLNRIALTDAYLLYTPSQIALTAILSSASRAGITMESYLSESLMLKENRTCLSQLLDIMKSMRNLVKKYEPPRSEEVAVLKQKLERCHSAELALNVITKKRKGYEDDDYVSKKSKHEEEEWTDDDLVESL
Sequence of CDK7/Cyclin H/MNAT1 (P50613 whole entry): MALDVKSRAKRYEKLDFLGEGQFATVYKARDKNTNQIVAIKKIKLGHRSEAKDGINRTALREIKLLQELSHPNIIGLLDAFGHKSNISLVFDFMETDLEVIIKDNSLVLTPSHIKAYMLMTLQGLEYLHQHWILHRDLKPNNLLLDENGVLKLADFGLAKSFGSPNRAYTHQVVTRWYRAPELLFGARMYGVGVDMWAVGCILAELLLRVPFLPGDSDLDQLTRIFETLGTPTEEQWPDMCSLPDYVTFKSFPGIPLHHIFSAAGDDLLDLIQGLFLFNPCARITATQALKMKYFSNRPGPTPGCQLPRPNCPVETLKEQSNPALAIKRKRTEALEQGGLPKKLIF
Sequence of CDK7/Cyclin H/MNAT1 (P51948 whole entry, further chain): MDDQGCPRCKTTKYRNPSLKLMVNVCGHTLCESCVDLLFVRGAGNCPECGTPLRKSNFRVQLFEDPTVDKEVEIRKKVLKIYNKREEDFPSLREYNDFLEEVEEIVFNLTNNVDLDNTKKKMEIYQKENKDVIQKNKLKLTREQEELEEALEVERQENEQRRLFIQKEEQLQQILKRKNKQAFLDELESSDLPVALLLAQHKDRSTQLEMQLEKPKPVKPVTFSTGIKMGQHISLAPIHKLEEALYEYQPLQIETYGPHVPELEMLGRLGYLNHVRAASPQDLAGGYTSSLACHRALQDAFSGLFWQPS

[15] = Metabolic stability of the compound in rat liver microsomes at 10 uM measured for 60 mins in presence of NADPH by LC-MS/MS analysis; type: ADME, Microsome; details: 1 h
CDK6/cyclin D1 = CDK6/cyclin D1 (Homo sapiens, UniProt Q00534); experiment: Inhibition of CDK6/CyclinD1 (unknown origin) by ADP-Glo assay; type: protein-complex assay
Sequence of CDK6/cyclin D1 (P24385 whole entry): as the sequence (P24385 whole entry, further chain) above
Sequence of CDK6/cyclin D1 (Q00534 whole entry): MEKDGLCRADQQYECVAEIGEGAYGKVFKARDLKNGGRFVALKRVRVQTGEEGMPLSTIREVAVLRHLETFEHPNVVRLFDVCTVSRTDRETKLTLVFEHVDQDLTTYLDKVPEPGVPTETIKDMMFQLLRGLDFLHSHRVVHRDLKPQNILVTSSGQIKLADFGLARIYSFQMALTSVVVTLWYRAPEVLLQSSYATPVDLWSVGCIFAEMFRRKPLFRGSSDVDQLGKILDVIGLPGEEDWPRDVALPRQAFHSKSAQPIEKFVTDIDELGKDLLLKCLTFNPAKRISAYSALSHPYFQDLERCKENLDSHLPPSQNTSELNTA

## COc1cc(O)c2c(=O)cc(-c3ccc(N4CCN(C)CC4)cc3)oc2c1[C@H]1CCN(C)C[C@H]1O
MV4-11 [1]
  IC50: 0.18 µM
[2]
  inhibition: 64.9%
[3]
  inhibition: 5.4%

## COc1cc(O)c2c(=O)cc(-c3ccc(N4CCCC4)cc3)oc2c1N1CCNCC1
MV4-11 [1]
  IC50: 0.17 µM
[2]
  inhibition: 79.6%
[3]
  inhibition: 4.7%

## COc1cc(O)c2c(=O)cc(-c3ccc(N4CCN(C)CC4)cc3)oc2c1N1CCN(C)CC1
MV4-11 [1]
  IC50: 0.1 µM
[2]
  inhibition: 75.8%
[3]
  inhibition: 23.5%

## COc1cc(O)c2c(=O)cc(-c3ccc(N4CCN(C)CC4)cc3)oc2c1[C@H]1CCN(C)[C@@H]1CO
MV4-11 [1]
  IC50: 0.07 µM
[2]
  inhibition: 1.4%
[3]
  inhibition: inactive

## COc1cc(O)c2c(=O)cc(-c3ccc(N4CCN(C)CC4)cc3)oc2c1N1CCOCC1
MV4-11 [1]
  IC50: 0.11 µM
[2]
  inhibition: 44.4%
[3]
  inhibition: inactive

## COc1cc(O)c2c(=O)cc(-c3ccc(N4CCN(C)CC4)cc3)oc2c1N1CCCC1
MV4-11 [1]
  IC50: 0.07 µM
[2]
  inhibition: 17.6%
[3]
  inhibition: inactive

## COc1cc(O)c2c(=O)cc(-c3ccc(N4CCN(C)CC4)cc3)oc2c1N1CCNCC1
A549
  IC50: 1.15 µM
MV4-11 [4]
  inhibition in vivo at 10 mg/kg: 48%
[5]
  solubility: 450 µg/mL (≈ 999 µM)
HT-29
  IC50: 0.88 µM
[6]
  IC50 at 72 h: 25.5 µM
SW480
  IC50: 0.99 µM
[7]
  IC50: 0.311 µM
BT-549
  IC50: 1.85 µM
[8]
  IC50: 1.78 µM
MCF7
  IC50: 1.5 µM
HL-60
  IC50: 0.12 µM
[9]
  Activity: Non-Toxic
MOLM-13
  IC50: 1.11 µM
MV4-11 [10]
  inhibition in vivo at 20 mg/kg: 61%
[11]
  Stability: Stable
[12]
  Stability: Stable
HCT-116
  IC50: 0.69 µM
[13]
  IC50 at 72 h: 17.7 µM
THP-1
  IC50: 4.26 µM
HepG2
  IC50: 1.77 µM
MV4-11 [1]
  IC50: 0.08 µM
[14]
  Activity: Non-Toxic
[2]
  inhibition: 75%
[3]
  inhibition: 8.3%
CDK7/Cyclin H/MNAT1
  IC50: 4.52 µM
[15]
  Stability: Stable
CDK6/cyclin D1
  IC50: 2.22 µM

## COc1cc(O)c2c(=O)cc(-c3ccc(N4CCC(N5CCOCC5)CC4)cc3)oc2c1N1CCNCC1
MV4-11 [1]
  IC50: 0.31 µM
[2]
  inhibition: 78%
[3]
  inhibition: 4.7%

## COc1cc(O)c2c(=O)cc(-c3ccc(N4CCCNCC4)cc3)oc2c1C1=CCN(C)CC1
MV4-11 [1]
  IC50: 0.15 µM
[2]
  inhibition: 99%
[3]
  inhibition: 32.5%

## COc1cc(O)c2c(=O)cc(-c3ccc(N4CCC(N5CCOCC5)CC4)cc3)oc2c1C1=CCN(C)CC1
MV4-11 [1]
  IC50: 0.33 µM
[2]
  inhibition: 90.9%
[3]
  inhibition: 29%

## COc1cc(O)c2c(=O)cc(-c3ccc(N4CCN(C)CC4)cc3)oc2c1
MV4-11 [1]
  IC50: 2.02 µM
[2]
  inhibition: 5.1%
[3]
  inhibition: inactive

## COc1cc(O)c2c(=O)cc(-c3ccc(N4CCN(C)CC4)cc3)oc2c1Oc1c(C)n[nH]c1C
MV4-11 [1]
  IC50: 2.02 µM
[2]
  inhibition: 75.8%
[3]
  inhibition: 14.2%

## COc1cc(O)c2c(=O)cc(-c3ccc(N4CCNCC4)cc3)oc2c1N1CCNCC1
MV4-11 [1]
  IC50: 0.1 µM
[2]
  inhibition: 70.8%
[3]
  inhibition: inactive

## COc1cc(O)c2c(=O)cc(-c3ccc(N4CCCNCC4)cc3)oc2c1N1CCNCC1
MV4-11 [1]
  IC50: 0.21 µM
[2]
  inhibition: 78%
[3]
  inhibition: 18.9%

## COc1cc(O)c2c(=O)cc(-c3ccc(N4CCOCC4)cc3)oc2c1N1CCNCC1
MV4-11 [1]
  IC50: 0.17 µM
[2]
  inhibition: 74.4%
[3]
  inhibition: 17.5%

## COc1cc(O)c2c(=O)cc(-c3ccc(N4CCNCC4)cc3)oc2c1C1=CCN(C)CC1
MV4-11 [1]
  IC50: 0.13 µM
[2]
  inhibition: 98.6%
[3]
  inhibition: inactive

## COc1cc(O)c2c(=O)cc(-c3ccc(N4CCN(C)CC4)cc3)oc2c1N1CCCCC1
MV4-11 [1]
  IC50: 1.23 µM
[2]
  inhibition: 47.5%
[3]
  inhibition: inactive

## COc1cc(O)c2c(=O)cc(-c3ccc(N4CCN(C)CC4)cc3)oc2c1N1CCC(N2CCOCC2)CC1
MV4-11 [1]
  IC50: 0.21 µM
[2]
  inhibition: 70%
[3]
  inhibition: 24.5%
